Experiments:
[1] = solubility of hydrochloride crystal forms; type: physicochemical
[2] = hygroscopicity, Dynamic Vapor Sorption (DVS); type: physicochemical; conditions: for water absorbed eventually (up to): 90% RH; for RH at which moisture pick-up starts: relative humidity; for Hygroscopicity: hydrochloric acid salt
Method: Salt forms of a compound of formula 1 were investigated with X-ray powder diffraction, DSC, TGA and microscopy. FIG. 1 illustrates X-ray patterns observed for various salt forms. FIGS. 2 and 3 present results of thermal studies performed on such salt forms. FIGS. 4 and 5 present DVS data of sulfuric and phosphoric salts. […] FIGS. 6-12 show characterization data for hydrochloride salt forms.
Dynamic Vapor Sorption (DVS) was done at 25-26° C.

[3] = target: T1, α7 nicotinic acetylcholine receptor (Rattus norvegicus, UniProt Q05941); assay: functional FLIPR assay, α7 nAChR stably expressed in GH4C1 cells; type: cell-based; conditions: GH4C1 cells stably transfected with rat α7 nAChR; agonist concentration range 0.001 to 30 microM
T1 construct: expressed in transfected cells
T1 sequence (Q05941 23-502): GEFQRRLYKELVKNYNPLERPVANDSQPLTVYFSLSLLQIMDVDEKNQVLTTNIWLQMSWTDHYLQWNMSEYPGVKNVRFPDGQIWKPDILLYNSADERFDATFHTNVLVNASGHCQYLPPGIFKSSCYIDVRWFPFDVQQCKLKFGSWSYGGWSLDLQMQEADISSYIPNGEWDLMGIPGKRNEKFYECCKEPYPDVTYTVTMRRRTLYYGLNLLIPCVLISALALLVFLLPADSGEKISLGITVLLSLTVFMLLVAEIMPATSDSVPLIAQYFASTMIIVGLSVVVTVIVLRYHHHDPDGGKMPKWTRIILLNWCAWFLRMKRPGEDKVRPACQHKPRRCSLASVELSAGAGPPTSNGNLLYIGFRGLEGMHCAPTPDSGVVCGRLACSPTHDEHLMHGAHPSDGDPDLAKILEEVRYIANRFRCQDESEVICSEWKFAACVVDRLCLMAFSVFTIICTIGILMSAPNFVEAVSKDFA
Description: Rat GH4C1 cells were then transfected with the rat receptor, cloned and analyzed for functional alpha7 nicotinic receptor expression employing a FLIPR assay to measure changes in intracellular calcium concentrations.
The FLIPR system allows the measurements of real time Ca^2+-concentration changes in living cells using a Ca^2+ sensitive fluorescence dye (such as Fluo4). This instrument enables the screening for agonists and antagonists for alpha 7 nAChR channels stably expressed in GH4C1 cells.
GH4C1 cells stably transfected with rat-α7-nAChR (see above) were used. These cells are poorly adherent and therefore pretreatment of flasks and plates with poly-D-lysine was carried out. Cells are grown in 150 cm^2 T-flasks, filled with 30 ml of medium at 37° C. and 5% CO2.
EC50 and IC50 values were calculated using the IDBS XLfit4.1 software package employing a sigmoidal concentration-response (variable slope) equation:

COc1ccc(-c2cc(NC(=O)CCCCN3CCCN(C(C)=O)CC3)n[nH]2)cc1.Cl [Form II, 5-(4-acetyl-1,4-diazepan-1-yl)-N-(5-(4-methoxyphenyl)-1H-pyrazol-3-yl)pentanamide hydrochloric salt Form II]
solubility in water (in words) [1]: considerably soluble | water absorbed eventually (up to) [2]: up to 7% | water held at low RH ([2]; low RH (0%)): 2% | RH at which moisture pick-up starts [2]: about 20%

Sulfuric acid
water held at 50% RH [2]: maintains 0.4% | water held at 50% RH ([2]; listed as sulfate salt form): about 0.4% | water held at 50% RH ([2]; listed as sulfuric salt form): about 0.4% | gain below 70% RH ([2]; below 70% RH): 0.5% | Hygroscopicity (in words) ([2]; listed as sulfate salt): non-hygroscopic | Hygroscopicity (in words) ([2]; listed as sulfate salt form): low degree of hygroscopicity | Hygroscopicity (in words) ([2]; listed as sulfuric salt form): low degree of hygroscopicity

COc1ccc(-c2cc(NC(=O)CCCCN3CCCN(C(C)=O)CC3)n[nH]2)cc1.Cl [Hydrochloric acid, 5-(4-acetyl-1,4-diazepan-1-yl)-N-(5-(4-methoxyphenyl)-1H-pyrazol-3-yl)pentanamide hydrogen chloride]
Hygroscopicity ([2]; crystalline solid with melting onset 125° C. (first of two such lines)): Yes | Hygroscopicity ([2]; crystalline solid with melting onset 165° C.): Somewhat | Hygroscopicity ([2]; crystalline solid with melting onset 185° C.): No | Hygroscopicity ([2]; solid with three peaks: about 100, about 180 and about 200° C.): Yes | hygroscopicity of the sample ([2]; hydrochloride salt of Example 2D, precipitated from DCM with HCl in Et2O): extreme hygroscopicity | Hygroscopicity (in words) ([2]; listed as hydrochloride): non-hygroscopic | melting point: 132 to 133 °C

COc1ccc(-c2cc(NC(=O)CCCCN3CCCN(C(C)=O)CC3)n[nH]2)cc1.Cl [Form I, 5-(4-acetyl-1,4-diazepan-1-yl)-N-(5-(4-methoxyphenyl)-1H-pyrazol-3-yl)pentanamide hydrochloric salt Form I]
solubility in water (in words) [1]: considerably soluble | moisture gained at 70-100% RH ([2]; 70-100% RH, lost without significant hysteresis on decreasing RH): at least 2% | water absorbed eventually (up to) [2]: up to 2% | moisture gained when equilibrated at RH less than or equal to 70% ([2]; RH <= 70%): about 0.5% | RH at which moisture pick-up starts [2]: about 50%

COc1ccc(-c2cc(NC(=O)CCCCN3CCCN(C(C)=O)CC3)n[nH]2)cc1.Cl [Form III]
solubility ([1]; MC/T, aqueous with cosolvent or surfactant or cyclodextrin): > 100 mg/mL | water held at 50% RH ([2]; listed as Crystal Form III): (10% water | Hygroscopicity (in words) ([2]; listed as Crystal Form III): Hygroscopic

COc1ccc(-c2cc(NC(=O)CCCCN3CCCN(C(C)=O)CC3)n[nH]2)cc1.Cl [Form V]
water held at 50% RH ([2]; listed as Crystal Form V): (7% at RH | Hygroscopicity (in words) ([2]; listed as Crystal Form V): Hygroscopic

C[N+]1(C)CCN(c2ccccc2)CC1 [DMPP]
EC50 [3]: 0.98 ± 0.47 µM

Reference: patent publication US20090181953A1, “COMPOUND FORMS AND USES THEREOF” (WYETH, priority 2008, published 2009)
